In ChEMBL document CHEMBL4483862, “Open-source discovery of chemical leads for next-generation chemoprotective antimalarials” (2018):

System: Plasmodium berghei
Assay: Luciferase/luciferin-expressing antifolate-resistant parasites were used to infect a culture of HepG2 cells that were pre-incubated with compounds. Infected hepatocytes emit light due to the luciferase reaction. Assay results are presented as the percent inhibition of light emission compared to control. […]
Format: functional
Settings: sporozoite; for IC90: read-out: LUCIFERASE INFECTION ASSAY - IC90

Structure (SMILES)	IC90 [µM]	also measured
O=C1NC(c2ccccc2)=C(c2nc3ccccc3s2)C(c2ccc(O)cc2)N1 (stereo not drawn)	> 10	IC50 (FFLUC_HILL_SLOPE 17.5, FFLUC_R_SQUARED 0.699, PBLUC_HILL_SLOPE 3.26, 2.75, PBLUC_R_SQUARED 0.346, 0.719, read-out: LUCIFERASE INFECTION ASSAY - IC50): 5.94 µM
CCN(CC(=O)Nc1ccccc1-c1ccccc1)Cc1nc(O)c2ccccc2n1	7.89	IC50 (FFLUC_HILL_SLOPE 18, FFLUC_R_SQUARED 0.273, HEPG2TOX_HILL_SLOPE 1.8, HEPG2TOX_R_SQUARED 0.962, PBLUC_HILL_SLOPE 1.44, PBLUC_R_SQUARED 0.751, read-out: LUCIFERASE INFECTION ASSAY - IC50): 1.72 µM
CN(CC(=O)Nc1c(Cl)cccc1Cl)C(=O)c1ccccc1-c1nc2ccccc2s1	6.97	IC50 (FFLUC_HILL_SLOPE 17.7, FFLUC_R_SQUARED 0.2, PBLUC_HILL_SLOPE 167, PBLUC_R_SQUARED 0.153, read-out: LUCIFERASE INFECTION ASSAY - IC50): 6.87 µM
Cc1cccc(N2CCN(C(=O)c3ccc4[nH]c(C)c(C)c4c3)CC2)c1C	1.14	IC50 (FFLUC_HILL_SLOPE 18.8, FFLUC_R_SQUARED 0.39, HEPG2TOX_HILL_SLOPE 1.29, HEPG2TOX_R_SQUARED 0.937, PBLUC_HILL_SLOPE 10.9, PBLUC_R_SQUARED 0.355, read-out: LUCIFERASE INFECTION ASSAY - IC50): 0.935 µM
Cc1ccnc(NC(c2ccccn2)c2ccc3cccnc3c2O)c1 (stereo not drawn)	> 9.64	IC50 (FFLUC_HILL_SLOPE 17.7, FFLUC_R_SQUARED 0.0708, HEPG2TOX_HILL_SLOPE 10.6, HEPG2TOX_R_SQUARED 0.571, PBLUC_HILL_SLOPE 38.3, PBLUC_R_SQUARED 0.424, read-out: LUCIFERASE INFECTION ASSAY - IC50): 9.27 µM
CC(NC(=O)C12CC3CC(CC(C3)C1)C2)C(=O)N/N=C/C1=C(N2CCOCC2)C(=C\c2ccccc2)/CC1 (stereo not drawn)	> 10	IC50 (FFLUC_HILL_SLOPE 17.7, FFLUC_R_SQUARED 0.505, PBLUC_HILL_SLOPE 17.3, PBLUC_R_SQUARED 0.294, read-out: LUCIFERASE INFECTION ASSAY - IC50): 9.09 µM
N#C/C(=C\c1ccc(C(F)(F)F)cc1)c1c[nH]c2ccccc12	> 10.6	IC50 (FFLUC_HILL_SLOPE 17.8, FFLUC_R_SQUARED 0.181, PBLUC_HILL_SLOPE 2.5, PBLUC_R_SQUARED 0.114, read-out: LUCIFERASE INFECTION ASSAY - IC50): > 10.6 µM
COc1ccc(-c2cnc3ccc(-c4cccc(Cl)c4)nn23)cc1OC	5.25	IC50 (FFLUC_HILL_SLOPE 18.1, FFLUC_R_SQUARED 0.385, HEPG2TOX_HILL_SLOPE 1.42, HEPG2TOX_R_SQUARED 0.94, PBLUC_HILL_SLOPE 1.13, PBLUC_R_SQUARED 0.747, read-out: LUCIFERASE INFECTION ASSAY - IC50): 0.748 µM
Nc1ncnc(N/N=C/c2ccc(O)cc2O)c1[N+](=O)[O-]	> 10	IC50 (FFLUC_HILL_SLOPE 17.8, FFLUC_R_SQUARED 0.491, HEPG2TOX_HILL_SLOPE 1.97, HEPG2TOX_R_SQUARED 0.831, read-out: LUCIFERASE INFECTION ASSAY - IC50): > 10 µM
COc1ccc(C(=O)Nc2nc3ccc(C)cn3c2C(=O)NC2CCCCC2)cc1	3.1	IC50 (FFLUC_HILL_SLOPE 17.6, FFLUC_R_SQUARED 0.155, HEPG2TOX_HILL_SLOPE 2.69, HEPG2TOX_R_SQUARED 0.972, PBLUC_HILL_SLOPE 14.3, PBLUC_R_SQUARED 0.423, read-out: LUCIFERASE INFECTION ASSAY - IC50): 2.66 µM
COc1cccc(-c2nc(CSc3nc4ccccc4c(=O)n3C)cs2)c1	3.7	IC50 (FFLUC_HILL_SLOPE 18, FFLUC_R_SQUARED 0.516, HEPG2TOX_HILL_SLOPE 5.55, HEPG2TOX_R_SQUARED 0.861, PBLUC_HILL_SLOPE 17.5, PBLUC_R_SQUARED 0.299, read-out: LUCIFERASE INFECTION ASSAY - IC50): 3.27 µM
C=CCOc1cccc(/C=C2/C(=O)Nc3cc(Cl)ccc32)c1	> 10	IC50 (FFLUC_HILL_SLOPE 17.6, FFLUC_R_SQUARED 0.397, HEPG2TOX_HILL_SLOPE 7.7, HEPG2TOX_R_SQUARED 0.755, PBLUC_HILL_SLOPE 12.7, PBLUC_R_SQUARED 0.0397, read-out: LUCIFERASE INFECTION ASSAY - IC50): 9.6 µM
CC(=O)Nc1cccc(/C(C)=N/n2c(-c3cccc([N+](=O)[O-])c3)cs/c2=N\c2c(C)cccc2C)c1	4.17	IC50 (FFLUC_HILL_SLOPE 18.6, FFLUC_R_SQUARED 0.557, PBLUC_HILL_SLOPE 12.4, PBLUC_R_SQUARED 0.7, read-out: LUCIFERASE INFECTION ASSAY - IC50): 3.49 µM
COC(=O)C1=C(Nc2ccc(OC(=O)Nc3cccc(Cl)c3)cc2)CSC1	> 8.15	IC50 (FFLUC_HILL_SLOPE 18, FFLUC_R_SQUARED 0.412, read-out: LUCIFERASE INFECTION ASSAY - IC50): > 8.15 µM
O=C(Nc1nonc1-c1cccs1)c1sc2cc(Cl)ccc2c1Cl	2.76	IC50 (FFLUC_HILL_SLOPE 17.9, FFLUC_R_SQUARED 0.511, HEPG2TOX_HILL_SLOPE 2.63, HEPG2TOX_R_SQUARED 0.88, PBLUC_HILL_SLOPE 16.1, PBLUC_R_SQUARED 0.687, read-out: LUCIFERASE INFECTION ASSAY - IC50): 2.41 µM
O=C(O)c1cccc2cccc([S+]([O-])c3ccccc3CO)c12 (stereo not drawn)	> 10.1	IC50 (FFLUC_HILL_SLOPE 17.8, FFLUC_R_SQUARED 0.335, read-out: LUCIFERASE INFECTION ASSAY - IC50): > 10.1 µM
Cc1c(Cl)cccc1NC(=O)CCc1nc(C(C)C)no1	> 10	IC50 (FFLUC_HILL_SLOPE 18.3, FFLUC_R_SQUARED 0.35, read-out: LUCIFERASE INFECTION ASSAY - IC50): > 10 µM
Cc1cc(C)nc(-n2nc(Nc3ccccc3)cc2Nc2ccccc2)n1	> 10	IC50 (FFLUC_HILL_SLOPE 18.6, FFLUC_R_SQUARED 0.489, PBLUC_HILL_SLOPE 15, PBLUC_R_SQUARED 0.577, read-out: LUCIFERASE INFECTION ASSAY - IC50): 9.07 µM
CCOC(=O)c1c(-c2ccc(Cl)cc2)csc1NC(=O)CSc1nc2c(c(CC)c1C#N)C(=O)CC(C)(C)C2	> 10	IC50 (FFLUC_HILL_SLOPE 17.7, FFLUC_R_SQUARED 0.746, PBLUC_HILL_SLOPE 12.9, PBLUC_R_SQUARED 0.506, read-out: LUCIFERASE INFECTION ASSAY - IC50): 9.02 µM
CCCCCn1c(SCC(=O)Nc2sccc2C(N)=O)nc2sc3c(c2c1=O)CCC3	> 10	IC50 (FFLUC_HILL_SLOPE 17.7, FFLUC_R_SQUARED 0.0867, read-out: LUCIFERASE INFECTION ASSAY - IC50): > 10 µM
Cc1ccc(-c2nnc(N/N=C3/C=C(c4ccccc4)C(O)(c4ccccc4)C3)c3ccccc23)cc1C (stereo not drawn)	> 10	IC50 (FFLUC_HILL_SLOPE 18, FFLUC_R_SQUARED 0.659, PBLUC_HILL_SLOPE 2.04, PBLUC_R_SQUARED 0.344, read-out: LUCIFERASE INFECTION ASSAY - IC50): 6.48 µM
COc1cc(OC)cc(-c2cnc3cnc(-c4cccc(N)c4)cn23)c1	> 9.53	IC50 (FFLUC_HILL_SLOPE 17.8, FFLUC_R_SQUARED 0.255, PBLUC_HILL_SLOPE 12.5, PBLUC_R_SQUARED 0.443, read-out: LUCIFERASE INFECTION ASSAY - IC50): 9.41 µM
O=C(Nc1cccc(C2NCC(c3ccccc3Cl)c3c2[nH]c2ccccc32)c1)c1ccc(Cl)cc1 (stereo not drawn)	> 10	IC50 (FFLUC_HILL_SLOPE 18, FFLUC_R_SQUARED 0.972, PBLUC_HILL_SLOPE 3.03, PBLUC_R_SQUARED 0.515, read-out: LUCIFERASE INFECTION ASSAY - IC50): 7.4 µM
Cc1nn(-c2ccccc2)c2nc(-c3ccccc3)c(-c3nc4ccccc4[nH]3)c(-c3ccncc3)c12	> 10	IC50 (FFLUC_HILL_SLOPE 17.6, FFLUC_R_SQUARED 0.574, PBLUC_HILL_SLOPE 2.67, PBLUC_R_SQUARED 0.448, read-out: LUCIFERASE INFECTION ASSAY - IC50): 7.61 µM
Cc1cc(/C=C2\SC(NC3CCCCC3)=NC2=O)c(C)n1-c1ccc(Cl)c(C(F)(F)F)c1	9.71	IC50 (FFLUC_HILL_SLOPE 17.5, FFLUC_R_SQUARED 0.757, PBLUC_HILL_SLOPE 2.43, PBLUC_R_SQUARED 0.441, read-out: LUCIFERASE INFECTION ASSAY - IC50): 3.93 µM
O=S(=O)(Nc1ccc(Oc2cc(C(F)(F)F)cc(C(F)(F)F)c2)cc1)c1cc(C(F)(F)F)cc(C(F)(F)F)c1	3.81	IC50 (FFLUC_HILL_SLOPE 18.8, FFLUC_R_SQUARED 0.264, HEPG2TOX_HILL_SLOPE 15.6, HEPG2TOX_R_SQUARED 0.875, PBLUC_HILL_SLOPE 191, PBLUC_R_SQUARED 0.155, read-out: LUCIFERASE INFECTION ASSAY - IC50): 3.76 µM
CCOC(=O)c1c(-c2ccc(F)cc2)csc1NC(=O)CSc1nc2c(c(-c3ccccc3)c1C#N)C(=O)CC(C)(C)C2	> 10	IC50 (FFLUC_HILL_SLOPE 18.8, FFLUC_R_SQUARED 0.892, read-out: LUCIFERASE INFECTION ASSAY - IC50): > 10 µM
CC(C)NC(=O)c1c(NC(=O)c2cc(F)cc(F)c2)nc2ccccn12	1.12	IC50 (FFLUC_HILL_SLOPE 17.9, FFLUC_R_SQUARED 0.386, HEPG2TOX_HILL_SLOPE 1.01, HEPG2TOX_R_SQUARED 0.782, PBLUC_HILL_SLOPE 15.7, PBLUC_R_SQUARED 0.648, read-out: LUCIFERASE INFECTION ASSAY - IC50): 0.969 µM
O=[N+]([O-])c1cc(C(F)(F)F)ccc1N1CCCN(C(=S)Nc2cccc(C(F)(F)F)c2)CC1	> 6.7	IC50 (FFLUC_HILL_SLOPE 18.8, FFLUC_R_SQUARED 0.397, HEPG2TOX_HILL_SLOPE 0.504, HEPG2TOX_R_SQUARED 0.366, read-out: LUCIFERASE INFECTION ASSAY - IC50): > 6.7 µM
